As usually defined, the IC50 is the midpoint of a concentration-inhibition curve.

In this experiment the target is T1, hNav1.7 (Homo sapiens, UniProt Q15858).
T1 construct: expressed in transfected cells
Kind of experiment: hNav1.7 inactivated state (SIS) automated patch clamp electrophysiology (Patchliner, whole-cell). Format: cell-based. The settings on record: inactivated state protocol, hNav1.7 stably expressed in human embryonic kidney cells; for IC50: estimated eIC50 from 2-3 drug concentrations; for inhibition at 10 µM: Assay Conc. 10 uM, read-out: hNav1.7 SIS (% inh). On the procedure: hNav1.7, hNav1.2, hNav1.3, hNav1.4, hNav1.5, hNav1.6 were stably expressed in human embryonic kidney cells and kept under constant antibiotic selection. For in vitro assays, cells were maintained in appropriate growth medium at 37° C. and 5% CO2 in a humidified incubator.
Nav1.x expressing cells plated in T-25 flasks for 2-3 days prior to use and grown to 70-85% confluence were briefly trypsinized to obtain a single cell suspension of ˜2-3×10^6 cells/ml. All electrophysiological recordings were performed at ambient temperature (21-23° C.) using automated patch clamp (Patchliner, Nanion Technologies GmbH) in the whole-cell configuration using the following solutions: Internal solution contained (in mM): CsCl (50), NaCl (10), CsF (60), EGTA (20), HEPES (10), pH 7.2 KOH, 285 mOsmol·Kg^−1. External (bath) solution contained (in mM): NaCl (140), KCl (4), MgCl2 (1), CaCl2) (2) D-Glucose monohydrate (5), HEPES (10), pH 7.4 NaOH, 298 mOsmol·kg^−1.
The following voltage protocols were used to assess different Nav1.x channel states:
For each Nav1.x channel, a steady state inactivation curve was obtained in order to calculate the voltage resulting in 50% channel inactivation (V0.5inact). A 2 pulse protocol was then employed in which cells held at a voltage corresponding to 20 mV more negative to V0.5 inact were depolarised to −10 mV for 20 ms before returning to the previous holding voltage. This test pulse constituted P1 and represents 100% available (non-inactivated) Nav1.x channels. The same cell was then depolarised for 8 s to a voltage corresponding to 7 mV more positive than V0.5inact in order to cause channel inactivation. Following a brief (2 ms) hyperpolarising voltage step to −120 mV (to reset the activation gate), cells were again subjected to a depolarising test pulse (P2) to −10 mV for 20 ms before returning to the holding potential. Each sequence was repeated 6× at 30 s intervals. Using this protocol, control P2 current amplitudes (representing the % channels available following 8 s inactivation) was ˜50% of control P1 current amplitude. 6 repetitions of this recording sequence were made in the control bath solution and then again 2 minutes after compound addition and thereafter at increasing compound concentrations. % inhibition was calculated by (1−(P2drug at repetition 6/P2control at repetition 6))*100. Data were either presented as % block by a single concentration of drug or an estimated eIC50 determined from 2-3 drug concentrations which was determined by fitting data with a sigmoidal dose response curve (variable slope) using GraphPad Prism software (Version 6.0).
All compounds were dissolved in DMSO to 20 mM initially. Subsequent dilutions in DMSO were made to achieve 200× final bath concentrations. DMSO compound stocks were finally diluted 1/200 in bath solution just prior to assay resulting in a final DMSO concentration of 0.5% which was not found to affect control current amplitude.

T1 sequence (Q15858 whole entry): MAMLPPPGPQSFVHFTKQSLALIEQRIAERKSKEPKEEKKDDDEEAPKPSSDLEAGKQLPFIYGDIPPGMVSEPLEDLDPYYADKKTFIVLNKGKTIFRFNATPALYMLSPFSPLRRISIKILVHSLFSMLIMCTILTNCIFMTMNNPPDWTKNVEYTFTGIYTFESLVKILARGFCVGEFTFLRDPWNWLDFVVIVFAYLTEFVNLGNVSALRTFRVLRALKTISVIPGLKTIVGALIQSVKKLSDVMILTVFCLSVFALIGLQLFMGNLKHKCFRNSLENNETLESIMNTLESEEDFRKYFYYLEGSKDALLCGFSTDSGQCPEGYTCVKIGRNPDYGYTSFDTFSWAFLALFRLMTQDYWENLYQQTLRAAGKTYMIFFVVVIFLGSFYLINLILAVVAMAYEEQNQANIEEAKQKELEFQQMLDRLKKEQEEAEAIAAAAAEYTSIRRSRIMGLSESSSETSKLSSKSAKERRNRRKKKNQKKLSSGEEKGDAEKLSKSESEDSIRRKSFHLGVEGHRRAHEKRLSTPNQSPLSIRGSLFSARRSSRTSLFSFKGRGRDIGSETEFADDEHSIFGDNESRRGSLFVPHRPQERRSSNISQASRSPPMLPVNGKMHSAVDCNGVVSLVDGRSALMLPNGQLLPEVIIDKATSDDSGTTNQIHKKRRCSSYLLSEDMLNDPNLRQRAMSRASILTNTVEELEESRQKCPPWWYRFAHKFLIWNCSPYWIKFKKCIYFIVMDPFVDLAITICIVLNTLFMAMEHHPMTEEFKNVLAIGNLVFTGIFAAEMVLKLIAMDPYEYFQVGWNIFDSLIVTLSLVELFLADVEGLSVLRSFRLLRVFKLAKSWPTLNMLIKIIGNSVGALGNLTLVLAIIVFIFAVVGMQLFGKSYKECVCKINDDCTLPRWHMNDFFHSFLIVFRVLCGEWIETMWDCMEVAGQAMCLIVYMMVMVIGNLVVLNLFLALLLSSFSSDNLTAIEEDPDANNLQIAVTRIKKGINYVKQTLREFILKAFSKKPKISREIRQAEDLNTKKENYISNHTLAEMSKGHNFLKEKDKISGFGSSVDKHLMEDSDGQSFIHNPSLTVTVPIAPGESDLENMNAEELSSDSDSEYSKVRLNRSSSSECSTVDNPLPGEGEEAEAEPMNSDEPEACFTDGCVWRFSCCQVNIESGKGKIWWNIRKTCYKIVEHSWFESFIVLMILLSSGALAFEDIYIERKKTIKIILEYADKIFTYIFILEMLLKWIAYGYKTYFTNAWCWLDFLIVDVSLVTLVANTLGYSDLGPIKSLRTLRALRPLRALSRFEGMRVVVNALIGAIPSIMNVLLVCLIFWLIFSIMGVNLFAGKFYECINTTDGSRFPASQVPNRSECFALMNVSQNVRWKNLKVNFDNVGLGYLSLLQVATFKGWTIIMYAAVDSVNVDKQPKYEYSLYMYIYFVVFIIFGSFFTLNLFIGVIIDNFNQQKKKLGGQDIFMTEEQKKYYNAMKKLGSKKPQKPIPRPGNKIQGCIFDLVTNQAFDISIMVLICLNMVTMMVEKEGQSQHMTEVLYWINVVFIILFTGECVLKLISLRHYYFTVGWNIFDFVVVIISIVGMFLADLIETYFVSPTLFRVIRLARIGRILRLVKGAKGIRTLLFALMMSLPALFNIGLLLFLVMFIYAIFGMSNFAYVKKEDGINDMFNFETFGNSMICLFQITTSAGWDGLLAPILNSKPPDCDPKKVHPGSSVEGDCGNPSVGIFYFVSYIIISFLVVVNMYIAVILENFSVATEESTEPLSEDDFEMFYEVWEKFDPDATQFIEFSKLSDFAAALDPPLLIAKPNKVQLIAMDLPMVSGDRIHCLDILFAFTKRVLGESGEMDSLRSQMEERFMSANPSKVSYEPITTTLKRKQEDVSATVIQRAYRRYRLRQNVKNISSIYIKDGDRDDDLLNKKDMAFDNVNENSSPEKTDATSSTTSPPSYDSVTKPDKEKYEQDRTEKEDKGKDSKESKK

Regarding `O=C(NCc1cc(OCC2CCCCC2)ccc1F)c1ccn2ccnc2c1` [Number 1], the 50% inhibitory concentration (IC50) was 0.41 µM.
Still for that read-out and setting: the same measure for `O=C(NCc1cccc(OCc2ccccc2F)c1)c1nccn2ccnc12` [Number 2]: 1.3 µM.
In the case of `O=C(NCc1cccc(OCc2ccccc2F)c1)c1cccn2ccnc12` [Number 3], the half-maximal inhibitory concentration (IC50) was 2.7 µM.
The same measure, in the same setting: then `O=C(NCc1cc(OCc2ccccc2F)ccc1F)c1cccn2cnnc12` [Number 4], with 1.1 µM.
Still for that read-out and setting: the same measure for `O=C(NCc1cc(OCc2ccccc2F)ccc1F)c1ccn2ccnc2c1` [Number 5]: 1.3 µM; for `O=C(NCc1cc(OCC2CCCCC2)ccc1F)c1cccn2cnnc12` [Number 6]: 0.13 µM; for `CC(C)(NC(=O)c1cccn2cnnc12)c1cccc(OCC2CCCCC2)c1` [Number 7]: 4.8 µM.
With `O=C(NCc1cccc(OCC2CCCCC2)c1)c1cccn2cnnc12` [Number 8], the IC50 is 0.91 µM.
Consider `O=C(NCc1cccc(OCc2ccccc2F)c1)c1ccn2ccnc2c1` [Number 9], for which the IC50 is 8.9 µM.
On to `O=C(NCc1cccc(OCc2ccccc2F)c1)c1cccn2cnnc12` [Number 10], for which the IC50 was 3.3 µM.
Turning to `CC(C)(NC(=O)c1ccn2ccnc2c1)c1cccc(OCc2ccccc2F)c1` [Number 11], the inhibition at 10 µM came to 45%.
For `CC(C)(NC(=O)c1ccn2ccnc2c1)c1cccc(OCC2CCCCC2)c1` [Number 12], the IC50 is 0.51 µM.
As to `O=C(NCc1cc(OCc2ccccc2F)ccc1F)c1nccn2ccnc12` [Number 48], the inhibition at 10 µM is 100%.
With `O=C(NCc1cc(OCc2ccccc2F)ccc1F)c1cccc2nncn12` [Number 49], the inhibition at 10 µM worked out at 38%.
For the molecule `O=C(NCc1cccc(OCc2ccccc2F)c1)c1cccc2ccnn12` [Number 50], the inhibition at 10 µM is 80%.
Turning to `CC(C)(Oc1cccc(CNC(=O)c2cccn3cnnc23)c1)c1ccccc1F` [Number 51], the inhibition at 10 µM turned out to be 36%.
On to `CC(C)(Oc1cccc(CNC(=O)c2cccn3ccnc23)c1)c1ccccc1F` [Number 52], for which the inhibition at 10 µM came out at 83%.
The same measure, in the same setting: then `COC[C@@H](C)N(Cc1cccc(OCc2ccccc2F)c1)C(=O)c1cn2ccccc2n1` [Number 53], with 74%; and `COC[C@H](C)N(Cc1cccc(OCc2ccccc2F)c1)C(=O)c1cn2ccccc2n1` [Number 54], with 55%; and `Cn1ccc(C(=O)NCc2cc(OCc3ccccc3F)ccc2F)cc1=O` [Number 55], with 49%.
As to `O=C(NCc1cc(OCc2ccccc2F)ccc1F)c1cn2ccccc2n1` [Number 56], the 50% inhibitory concentration (IC50) is 2.2 µM.
As to `Cn1cccc(C(=O)NCc2cccc(OCc3ccccc3F)c2)c1=O` [Number 57], the inhibition at 10 µM amounted to 53%.
Same read-out and setting: then `Cn1cccc(C(=O)NCc2cc(OCc3ccccc3F)ccc2F)c1=O` [Number 58], with 52%; and `O=C(NCc1cc(OCc2ccccc2F)ccc1F)c1cn2cccnc2n1` [Number 59], with 42%.
For the molecule `O=C(NCc1cccc(OCc2ccccc2F)c1)c1cccc2cncn12` [Number 60], the inhibition at 10 µM was 49%.
For `CN(Cc1cccc(OCc2ccccc2F)c1)C(=O)c1cn2ccccc2n1` [Number 61], the IC50 is 1.6 µM.
With `O=C(NCc1cccc(OCc2ccccc2F)c1)c1cn2ncccc2n1` [Number 62], the inhibition at 10 µM was found to be 50%.
As for `O=C(NCc1cccc(OCc2ccccc2F)c1)c1cn2cccnc2n1` [Number 63], the inhibition at 10 µM was 42%.
Same read-out and setting: then `O=C(NCc1cccc(OCc2ccccc2F)c1)c1cccc2ncnn12` [Number 64], with 48%.
Regarding `O=C(NCc1cc(OCc2ccccc2F)ccc1F)c1cccc2ncnn12` [Number 65], the IC50 was 10 µM.
As for `Cn1ccc(C(=O)NCc2cccc(OCc3ccccc3F)c2)cc1=O` [Number 66], the inhibition at 10 µM is 30%.
Turning to `O=C(NCc1cccc(OCc2ccccc2F)c1)c1cn2ccncc2n1` [Number 67], the inhibition at 10 µM amounted to 34%.
For the molecule `O=C(NCc1cc(OCc2ccccc2F)ccc1F)c1cn2ncccc2n1` [Number 68], the inhibition at 10 µM stood at 53%.
For `O=C(NCc1cccc(OCc2ccccc2F)c1)c1cc2cccn2cn1` [Number 69], the inhibition at 10 µM was 92%.
On to `O=C(NCc1cccc(OCc2ccccc2F)c1)c1ccn2cnnc2c1` [Number 70], for which the inhibition at 10 µM is 66%.
In the case of `Cc1cn2ccc(C(=O)NCc3cccc(OCc4ccccc4F)c3)cc2n1` [Number 71], the inhibition at 10 µM came to 66%.
Turning to `Cc1cn2ccc(C(=O)NCc3cc(OCc4ccccc4F)ccc3F)cc2n1` [Number 72], the inhibition at 10 µM was found to be 100%.
As to `O=C(NCc1cccc(OCc2ccccc2F)c1)c1cnc2ccccn12` [Number 73], the inhibition at 10 µM is 47%.
Still for that read-out and setting: the same measure for `O=C(NCc1cc(OCc2ccccc2F)ccc1F)c1ccn2cnnc2c1` [Number 74]: 58%.
As for `Cn1cc(CC(=O)NCc2cccc(OCc3ccccc3F)c2)c2ccccc21` [Number 75], the inhibition at 10 µM turned out to be 74%.
Regarding `O=C(Cc1cn2ccccc2n1)NCc1cccc(OCc2ccccc2F)c1` [Number 76], the inhibition at 10 µM stood at 44%.
As for `O=C(NCc1cccc(OCc2ccccc2F)c1)c1cccn2ncnc12` [Number 77], the inhibition at 10 µM came to 70%.
Turning to `O=C(NCc1cc(OCc2ccccc2F)ccc1F)c1cccn2ncnc12` [Number 78], the inhibition at 10 µM stood at 83%.
In the case of `O=C(NCc1cccc(OCc2ccccc2F)c1)c1cccn2nnnc12` [Number 79], the inhibition at 10 µM turned out to be 42%.
In the case of `O=C(NCc1cccc(OCc2ccccc2F)c1)c1ccn2ncnc2c1` [Number 80], the inhibition at 10 µM stood at 30%.
Turning to `O=C(NCc1cc(OCc2ccccc2F)ccc1F)c1cccn2nnnc12` [Number 81], the inhibition at 10 µM amounted to 88%.
Turning to `O=C(NCc1cc(OCc2ccccc2F)ccc1F)c1ccn2ncnc2c1` [Number 82], the inhibition at 10 µM is 42%.
Same read-out and setting: then `Cc1cnc2cc(C(=O)NCc3cccc(OCc4ccccc4F)c3)ccn12` [Number 83], with 59%.
Take `O=C(NCc1cccc(OCc2ccccc2F)c1)c1ccc2cncn2c1` [Number 84]: the inhibition at 10 µM was found to be 45%.
Take `O=C(NCc1cc(OCc2ccccc2F)ccc1F)c1ccc2cncn2c1` [Number 85]: the inhibition at 10 µM was 55%.
The same measure, in the same setting: then `O=C(NCc1cccc(OCc2ccccc2F)c1)c1cccn2cncc12` [Number 86], with 92%; and `O=C(NCc1cc(OCc2ccccc2F)ccc1F)c1cccn2cncc12` [Number 87], with 66%.
Same read-out and setting: then `O=C(NCc1cccc(OCc2ccccc2F)c1)c1ccc2nncn2c1` [Number 88], with 49%; and `O=C(NCc1cc(OCc2ccccc2F)ccc1F)c1cccn2ccnc12` [Number 89], with 99%.

Source of the values: patent publication US11884673B2, “Modulators of ion channel receptors and uses thereof” (BIONOMICS LIMITED, priority 2018, dated 2024).
